Assay results published in PubChem BioAssay (NCI).
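How tested: cells in 96-well plates exposed to compound for 48 hours at five concentrations. Abbreviation: GI50, concentration required for 50% inhibition of growth. TGI: concentration producing complete growth inhibition.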

What was measured:
Assay in all cases: NCI-60 cell line screen, 48 h
DU-145 prostate = system: DU-145 prostate
EKVX NSCLC = system: EKVX NSCLC
HOP-62 NSCLC = system: HOP-62 NSCLC
MALME-3M melanoma = system: MALME-3M melanoma
MDA-N = system: MDA-N
NCI/ADR-RES ovarian = system: NCI/ADR-RES ovarian
RPMI-8226 leukemia = system: RPMI-8226 leukemia
SF-295 CNS = system: SF-295 CNS
UACC-257 melanoma = system: UACC-257 melanoma
T-47D breast = system: T-47D breast

Structure (SMILES)	TGI (DU-145 prostate) [µM]	TGI (EKVX NSCLC) [µM]	TGI (HOP-62 NSCLC) [µM]	TGI (MALME-3M melanoma) [µM]	TGI (MDA-N) [µM]	TGI (NCI/ADR-RES ovarian) [µM]	TGI (RPMI-8226 leukemia) [µM]	TGI (SF-295 CNS) [µM]	TGI (UACC-257 melanoma) [µM]	TGI (T-47D breast) [µM]	GI50 (DU-145 prostate) [µM]	GI50 (EKVX NSCLC) [µM]	GI50 (NCI/ADR-RES ovarian) [µM]	GI50 (RPMI-8226 leukemia) [µM]	GI50 (T-47D breast) [µM]	GI50 (UACC-257 melanoma) [µM]
CSC1NC(c2ccccc2)=C(C#N)C(=O)N1C1OCC(OC(C)=O)C(OC(C)=O)C1OC(C)=O (configuration not stated)	> 100	> 100	> 100	> 100	> 100	> 100	> 100	> 100	> 100	–	–	–	–	–	–	–
COc1cc2c(c(OC)c1OC)-c1ccc(SC)c(=O)cc1C(CC(=O)Oc1cccc([N+](=O)[O-])c1)C2 (configuration not stated)	–	> 100	> 100	> 100	–	–	> 54.8	> 100	> 100	–	–	–	–	–	–	–
COc1ccc(OC)c(NCC(=O)Nn2cnc3ccc(S(=O)(=O)Nc4cc(OC)ccc4OC)cc3c2=O)c1	> 100	> 100	> 100	> 100	> 100	> 100	–	> 100	> 100	–	–	–	–	–	–	–
O=C(CN(C(=O)OC12CC3CC(CC(C3)C1)C2)C(=O)OC12CC3CC(CC(C3)C1)C2)Oc1ccc([N+](=O)[O-])cc1	–	> 100	> 100	> 100	> 100	> 100	–	> 100	> 100	–	–	–	–	–	–	–
CNC(=O)NCNC(=O)NC	–	> 100	> 100	> 100	–	–	> 100	> 100	> 100	–	–	–	–	–	–	–
CC1CN=C(NS(=O)(=O)c2cc(C(=O)Nc3ccc(Cl)cc3)c(Cl)cc2S)NN1 (configuration not stated)	> 100	> 100	> 100	39.1	> 100	> 100	70.8	> 100	> 100	–	–	–	–	–	–	–
CCOP(=O)(OCC)/C(C#N)=C/c1cccn1C(C)C	> 100	> 100	> 100	> 100	> 100	> 100	–	> 100	> 100	> 100	–	–	–	–	–	–
CCC(C)C(N)C(=O)NC(CC(N)=O)C(=O)NC(CC(C)C)C(=O)NC(CCCCN)C(=O)NC(C)C(=O)NC(CC(C)C)C(=O)NC(C)C(=O)NC(C)C(=O)NC(CC(C)C)C(=O)NC(C)C(=O)NC(CCCCN)C(=O)NC(CCCCN)C(=O)NC(C(=O)NC(CC(C)C)C(N)=O)C(C)CC (configuration not stated)	–	18.7	8.55	10.7	–	–	–	35.3	19.1	–	–	–	–	–	–	–
CCCCCCCCCCCCOP(=O)(O)OP(=O)(O)OCC1OC(n2ccc(N)nc2=O)CC1O (configuration not stated)	–	> 100	> 100	> 100	> 100	> 100	> 100	> 100	> 100	> 100	–	–	–	–	–	–
Cc1cc(S(=O)(=O)N2CCNNC2=O)c(S)cc1Cl	> 100	> 100	–	46.2	> 100	> 100	> 100	> 100	> 100	–	–	–	–	–	–	–
COc1cccc(/C=N/NC(=O)CSCC(=O)N/N=C/c2cccc(OC)c2OC)c1OC	> 100	> 100	> 100	> 100	–	> 100	> 100	> 100	> 100	> 100	–	–	–	–	–	–
c1cc(-c2ccc(-c3ccc(-c4ccc(-c5ccncc5)o4)cc3)o2)ccn1	28.2	45	55.3	34.7	31.1	> 100	–	30.9	29.6	40.9	–	–	–	–	–	–
COc1cc(C(=O)O[C@H](C(=O)NCCCNC(=O)[C@@H](OC(=O)c2cc(OC)cc3c(C)cccc23)[C@]2(C)CO2)[C@]2(C)CO2)c2cccc(C)c2c1	< 0.01	1.61	–	–	–	0.97	2.26	0.562	0.872	0.839	< 0.01	0.0885	0.154	0.322	0.0595	0.27
N#CCc1c(-c2ccccc2)n(S(=O)(=O)c2ccccc2)c2ccccc12	–	–	> 100	> 100	–	–	> 100	> 100	> 100	–	–	–	–	–	–	–
Clc1cccc(-c2sc(-c3ccsc3)cc2Cc2ccsc2)c1	> 10	> 10	> 10	> 10	> 10	–	> 10	> 10	> 10	> 10	–	–	–	–	–	–
CCOC(=O)CC(c1ccccc1)C(C)(C(=O)OCC)C(=O)OCC (configuration not stated)	> 100	> 100	> 100	> 100	–	> 100	–	> 100	> 100	> 100	–	–	–	–	–	–
COc1ccccc1Cc1ccc(C2C=CC3(CC(=O)C=C3C)C(=O)C2)o1 (configuration not stated)	> 100	> 100	50.3	47.5	44.2	> 100	39.2	65.9	68.9	–	–	–	–	–	–	–
NNC(=O)CC(=O)Nc1cccc(Cl)c1	> 100	> 100	> 100	> 100	> 100	–	> 100	> 100	> 100	> 100	–	–	–	–	–	–
